Where two headings read alike, the source gives them in different places.

The target in data set [1] is ATX enzyme (Homo sapiens (Human), UniProt Q13822). Put plainly: ATX enzyme activity inhibition assay. Format: biochemical. Conditions: 16:0-LPC substrate, Amplex UltraRed fluorescence. The protocol:
The tested compounds were dissolved with dimethyl sulfoxide (DMSO) to prepare 20 mM of stock solutions, the stock solutions were subjected to 4-fold gradient dilutions with DMSO, with the initial concentration of 20 µM and a total of 8 concentration gradients. 20 nL of diluted compound was transferred to a 384-well plate using Echo 550 and 5 µL of ATX enzyme solution formulated with 4 × Tris-HCl reaction buffer to the well, then the 384-well plate was centrifuged at 1000 rpm for 1 min and […] pre-incubated at room temperature for 15 min. Subsequently, 5 µL of 16:0-LPC foumulated with the above 4 × reaction buffer and 10 µL of assay solution containng 2 × Amplex UltraRed reagent, choline oxidase and horseradish peroxidase (HRP) foumulated with the same reaction buffer were added to each well, then the 384-well plate was centrifugated at 1000 rpm for 1 min. The fluorescence signals were read at an excitation wavelength of 530 nm and an emission wavelength of 590 nm by Synergy 2 microplate reader. The inhibition rate of the compound against enzyme reaction was calculated according to the fluorescence intensity ratio, and IC50 of the compound was analysed and calculated by GraphPad Prism 5 software.

The target in data set [2] is CYP3A4 (Homo sapiens (Human), UniProt P08684). Kind of data set: 3A4 subtype of CYP450 enzyme time-dependent inhibition assay (IC50 shift). The settings on record: probe testosterone, 50 µM; 30 min pre-incubation with vs without NADPH, testosterone substrate, human liver microsomes. In kind it is in vitro ADME. How it is done:
The probe substrate was testosterone at a concentration of 50 µM. The reaction was terminated after incubation for 10 min. The IC50 of the compound against enzyme was calculated by measuring the relative yield of metabolite, and the IC50 shift was calculated from the IC50 results of the groups pre-incubated with and without addition of NADPH.
On the technique in general: Liver microsomes are a subcellular fraction often used to study metabolism.

Data set [3] in a line: Rat pharmacokinetic study. In kind it is in vivo, SD rat. The settings on record: for F: PO 10 mg/kg vs IV 2 mg/kg; for AUC(0-inf) / AUC(0-t) / Cmax / half-life / Tmax: SD, plasma; for half-life: read-out: t½ (converted). The protocol: SD rat pharmacokinetic study was performed on several compounds in Examples of the present disclosure through a single intravenous injection (IV, at a dose of 2 mg/kg) and a single oral administration (PO, at a dose of 10 mg/kg), and blood samples were taken before administration and 5 min, 15 min, 30 min, 1 h, 2 h, 4 h, 8 h, 12 h and 24 h after administration, respectively, to determine the plasma concentration of the compound for assay. The pharmacokinetic data of control compound and the compounds in Examples 17, 26, 28 and 29 of the present disclosure in rat plasma are shown in Tables 4-8.

The target in data set [4] is hERG potassium channel (Homo sapiens (Human), UniProt Q12809). Kind of data set: hERG inhibition assay (manual whole-cell patch clamp). In kind it is cell-based. Conditions: hERG tail current, stable transfected cell line. The protocol:
Rapid activation of human delayed rectifier potassium current (IKr) is mainly mediated by hERG ion channel and participates in repolarization of human cardiomyocytes. Blocking this current with drugs will lead to QT interval prolongation syndrome in clinical practice, which will easily induce acute arrhythmia and even sudden death.
Experimental method: a whole-cell patch clamp technique was used to record hERG current. The cell suspension was added to a small petri dish and placed on an inverted microscope stage. After adherence, the cells were perfused with extracellular fluid at a recommended flow rate of 1-2 mL/min. The glass microelectrode was drawn by a microelectrode drawing instrument in two steps, and the resistance thereof after filling the electrode interior liquid was 2-5 MΩ. After the whole-cell recording mode was set up, the clamping potential was maintained at -80 mV. The depolarization voltage was applied to +60 mV for 850 ms, and then repolarized to -50 mV for 1275 ms to induce hERG tail current. Such a set of pulse programming was repeated every 15 seconds throughout the experiment. After the current was stable, the drug was administered by extracellular continuous perfusion from low concentration to high concentration. Starting from low concentration, perfusion continued until the drug effect was stable, then perfusion at the next concentration was performed. In this experiment, the blocking effect on hERG tail current was tested for the test objects at different concentrations and the positive control (N ≥ 2). Then, stimulus generation and signal acquisition were carried out by PatchMaster software; and a signal was amplified with a patch clamp amplifier. FitMaster, EXCEL, Graphpad Prism, SPSS 21.0, etc. were used for further data analysis and curve fitting. In data processing, when determining the blocking effect on hERG, the peak and baseline of tail current were calibrated. The inhibition rate (IR) of tail current was used to express the effect of the compounds at different concentrations.
IR = 100% × (peak of tail current before administration - peak of tail current after administration)/peak of tail current before administration.
IC50 was obtained by fitting the Hill equation (if applicable), if the maximum inhibition rate of the test object at all concentrations was less than 50%, then IC50 was not calculated. [00500]
Background: The hERG channel carries a current that helps repolarise heart muscle cells.

Data set [5] concerns Chinese hamster ovary cells (CHO-WBL). Put plainly: In vitro micronucleus assay with Chinese hamster ovary cells. How it is done: In the major micronucleus assay, CHO-WBL cells were exposed to at least 3 concentrations of the test object, while vehicle control group and positive control group were set up, with 2 replicated wells for each dose group. In inactivated test system, the administration lasted for 3 and 24 hours, and in S9 activated test system, the exposure to the test object lasted for 3 hours.
When choosing the highest dose for micronucleus frequency assay, the cytotoxicity of dose group of the test object should not substantially exceed 50% of that of the corresponding vehicle control group.
On the premise that the test is valid, the test results are evaluated according to the following criteria:
If the test object simutaneously meets the following criteria, it can be considered as positive:
A significant increase in micronucleus frequency is observed in one or more concentration groups.
If none of the above three points is met, the test object can be considered as negative.

Chain of CYP3A4 (P08684 whole entry): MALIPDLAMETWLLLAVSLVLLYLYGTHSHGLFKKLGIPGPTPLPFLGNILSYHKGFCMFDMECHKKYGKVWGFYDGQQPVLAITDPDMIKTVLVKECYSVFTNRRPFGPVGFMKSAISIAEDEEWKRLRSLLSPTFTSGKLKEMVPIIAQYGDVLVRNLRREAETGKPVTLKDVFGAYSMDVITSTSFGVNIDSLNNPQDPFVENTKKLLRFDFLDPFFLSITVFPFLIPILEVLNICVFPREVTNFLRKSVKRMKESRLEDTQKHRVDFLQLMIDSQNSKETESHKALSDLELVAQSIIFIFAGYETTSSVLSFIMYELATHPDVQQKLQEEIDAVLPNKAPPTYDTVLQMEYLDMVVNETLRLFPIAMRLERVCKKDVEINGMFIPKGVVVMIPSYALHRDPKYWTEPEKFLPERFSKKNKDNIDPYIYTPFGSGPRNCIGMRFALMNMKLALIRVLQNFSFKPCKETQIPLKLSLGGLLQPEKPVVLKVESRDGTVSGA
Chain of hERG potassium channel (Q12809 whole entry): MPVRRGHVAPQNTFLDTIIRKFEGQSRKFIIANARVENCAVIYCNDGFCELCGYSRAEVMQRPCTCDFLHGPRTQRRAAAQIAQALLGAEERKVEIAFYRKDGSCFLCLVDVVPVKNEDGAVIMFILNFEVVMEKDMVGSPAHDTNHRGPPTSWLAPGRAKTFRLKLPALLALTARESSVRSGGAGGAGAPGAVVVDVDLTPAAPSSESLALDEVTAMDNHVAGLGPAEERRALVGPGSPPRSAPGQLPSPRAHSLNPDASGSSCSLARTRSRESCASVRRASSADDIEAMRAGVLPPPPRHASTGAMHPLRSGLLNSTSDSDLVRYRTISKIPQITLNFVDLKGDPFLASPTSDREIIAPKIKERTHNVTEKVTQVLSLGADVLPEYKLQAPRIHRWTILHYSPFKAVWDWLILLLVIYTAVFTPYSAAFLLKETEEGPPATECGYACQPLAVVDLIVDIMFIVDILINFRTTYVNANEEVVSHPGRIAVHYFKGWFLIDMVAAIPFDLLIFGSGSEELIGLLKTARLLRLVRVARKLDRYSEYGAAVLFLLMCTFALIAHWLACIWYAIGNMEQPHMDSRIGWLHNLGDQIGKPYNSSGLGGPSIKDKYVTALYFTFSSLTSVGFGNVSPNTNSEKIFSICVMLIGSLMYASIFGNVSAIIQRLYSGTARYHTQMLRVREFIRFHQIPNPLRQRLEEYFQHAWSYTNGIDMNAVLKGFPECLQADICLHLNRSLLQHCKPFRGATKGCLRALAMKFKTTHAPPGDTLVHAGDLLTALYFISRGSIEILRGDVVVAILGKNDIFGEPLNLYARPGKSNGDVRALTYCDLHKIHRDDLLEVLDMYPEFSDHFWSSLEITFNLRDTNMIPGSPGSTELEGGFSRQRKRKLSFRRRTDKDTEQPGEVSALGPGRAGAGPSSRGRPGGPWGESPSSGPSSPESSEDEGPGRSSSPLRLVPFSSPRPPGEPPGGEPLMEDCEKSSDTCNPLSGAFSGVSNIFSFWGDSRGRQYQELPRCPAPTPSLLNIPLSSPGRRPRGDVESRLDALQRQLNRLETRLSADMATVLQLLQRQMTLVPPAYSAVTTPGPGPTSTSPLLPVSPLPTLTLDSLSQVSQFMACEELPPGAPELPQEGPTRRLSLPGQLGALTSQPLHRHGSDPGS

The IC50 is the concentration that gives 50% inhibition. In the case of `CCc1nc2ccc(-c3cnc(CC(=O)N4CC(O)C4)cn3)cn2c1N(C)c1nc(-c2ccc(F)cc2)c(C#N)s1` [Example 4, 2-((2-ethyl-6-(5-(2-(3-hydroxyazetidin-1-yl)-2-oxoethyl)pyrazin-2-yl)imidazo[1,2-a]pyridin-3-yl)(methyl)amino)-4-(4-fluorophenyl)thiazole-5-carbonitrile], the IC50 in data set [1] is 21 nM. Also, the IC50 shift at 10 min in data set [2] is 1.04.
Regarding `CCc1nc2ccc(-c3cnc(N4CCCS4(=O)=O)cn3)cn2c1N(CC)c1nc(-c2ccc(F)cc2)c(C#N)s1` [Example 19, 2-((6-(5-(1,1-dioxidoisothiazolidin-2-yl)pyrazin-2-yl)-2-ethylimidazo[1,2-a]pyridin-3-yl)(ethyl)amino)-4-(4-fluorophenyl)thiazole-5-carbonitrile], the IC50 in data set [1] was determined as 17 nM.
Same read-out and setting: as for `CCc1nc2ccc(-c3cnc(N(C)S(C)(=O)=O)nc3)cn2c1N(CC)c1nc(-c2ccc(F)cc2)c(C#N)s1` [Example 20, N-(5-(3-((5-cyano-4-(4-fluorophenyl)thiazol-2-yl)(ethyl)amino)-2-ethylimidazo[1,2-a]pyridin-6-yl)pyrimidin-2-yl)-N-methylmethanesulfonamide], the figure is 45 nM; as for `CCN(c1nc(-c2ccc(F)cc2)c(C#N)s1)c1c2nc(-c3cnc(N4CCCCS4(=O)=O)nc3)ccc2nn1CC` [Example 21, 2-((5-(2-(1,1-dioxido-1,2-thiazinan-2-yl)pyrimidin-5-yl)-2-ethyl-2H-pyrazolo[4,3-b]pyridin-3-yl)(ethyl)amino)-4-(4-fluorophenyl)thiazole-5-carbonitrile], 11 nM.
Same read-out and setting: as for `CCN(c1nc(-c2ccc(F)cc2)c(C#N)s1)c1c2nc(-c3cnc(N4CC(CO)C4)nc3)ccc2nn1CC` [Example 24, 2-(ethyl(2-ethyl-5-(2-(3-(hydroxymethyl)azetidin-1-yl)pyrimidin-5-yl)-2H-pyrazolo[4,3-b]pyridin-3-yl)amino)-4-(4-fluorophenyl)thiazole-5-carbonitrile], the figure is 11 nM; as for `CCN(c1nc(-c2ccc(F)cc2)c(C#N)s1)c1c2nc(-c3cnc(N4CC(OC(C)=O)C4)nc3)ccc2nn1CC` [Example 25, 1-(5-(3-((5-cyano-4-(4-fluorophenyl)thiazol-2-yl)(ethyl)amino)-2-ethyl-2H-pyrazolo[4,3-b]pyridin-5-yl)pyrimidin-2-yl)azetidin-3-yl acetate], 12 nM.
For orientation: AUC(0-inf) means the area under the concentration-time curve extrapolated to infinity. Low readings indicate low exposure, high ones high exposure. By AUC(0-t) is commonly meant the area under the concentration-time curve up to a stated or last time point. High values mean more exposure, low ones less exposure. One may read the Cmax as the peak of the concentration-time curve. What is called Tmax is the time at which the peak concentration occurs. On to `CCN(c1nc(-c2ccc(F)cc2)c(C#N)s1)c1c2nc(-c3cnc(N4CCC(O)CC4)nc3)ccc2nn1CC` [Example 26, 2-(ethyl(2-ethyl-5-(2-(4-hydroxypiperidin-1-yl)pyrimidin-5-yl)-2H-pyrazolo[4,3-b]pyridin-3-yl)amino)-4-(4-fluorophenyl)thiazole-5-carbonitrile], for which the values for the Cl_F_pred in data set [3] (IV 2 mg/kg) and in data set [3] (PO 10 mg/kg) were 0.25 L/h/kg and 1.5 L/h/kg, respectively. Moreover, in data set [3], the F amounted to 16.6%. Moreover, the results for the AUC(0-inf) in data set [3] (IV 2 mg/kg) and in data set [3] (PO 10 mg/kg) were 8170 ng·h/mL and 6720 ng·h/mL, respectively. Also, the AUC(0-t) came out at 7500 ng·h/mL in data set [3] (IV 2 mg/kg) and 6230 ng·h/mL in data set [3] (PO 10 mg/kg). Besides, the Cmax in data set [3] (IV 2 mg/kg) turned out to be 3070 ng/mL; in data set [3] (PO 10 mg/kg), 663 ng/mL. The half-life in data set [3] (IV 2 mg/kg) was 558 min; in data set [3] (PO 10 mg/kg), 348 min. Besides, the Tmax in data set [3] (PO 10 mg/kg) was determined as 4 h. The IC50 was 5.5 nM in data set [1] and above 30 µM in data set [4]. Also, the “% binuclear cells containing micronucleus” value in data set [5] (3-hour administration with metabolic activation, 3 µg/ml) worked out at 1.65%; in data set [5] (3-hour administration with metabolic activation, 6 µg/ml), 1.65%; in data set [5] (3-hour administration with metabolic activation, 12 µg/ml), 1.75%; in data set [5] (3-hour administration with metabolic activation, 20 µg/ml), 1.60%; in data set [5] (3-hour administration without metabolic activation, 3 µg/ml) it was 1.85%; in data set [5] (3-hour administration without metabolic activation, 6 µg/ml), 1.80%. In addition, the “% binuclear cells containing micronucleus” value in data set [5] (3-hour administration without metabolic activation, 12 µg/ml) is listed as 1.70%; in data set [5] (3-hour administration without metabolic activation, 25 µg/ml), 1.50%; in data set [5] (24-hour administration without metabolic activation, 1 µg/ml), 1.90%; in data set [5] (24-hour administration without metabolic activation, 3 µg/ml), 1.65%; in data set [5] (24-hour administration without metabolic activation, 6 µg/ml), 1.85%; in data set [5] (24-hour administration without metabolic activation, 9 µg/ml) it was 1.80%. In addition, the “potential to induce micronucleus formation in CHO-WBL cells” value in data set [5] (overall verdict over all administration series) was “negative”. For the same molecule, the IC50 shift at 10 min in data set [2] amounted to 1.09.
Turning to `CCN(c1nc(-c2ccc(F)cc2)c(C#N)s1)c1c2nc(-c3cnc(N4CC[C@H](O)C4)nc3)ccc2nn1CC` [Example 27, (S)-2-(ethyl(2-ethyl-5-(2-(3-hydroxypyrrolidin-1-yl)pyrimidin-5-yl)-2H-pyrazolo[4,3-b]pyridin-3-yl)amino)-4-(4-fluorophenyl)thiazole-5-carbonitrile], the figures for the IC50 in data set [1] and in data set [4] were 4.6 nM and above 30 µM, respectively. Further, the IC50 shift at 10 min in data set [2] amounted to 0.63.
In data set [3] (IV 2 mg/kg), `CCN(c1nc(-c2ccc(F)cc2)c(C#N)s1)c1c2nc(-c3cnc(N4CC[C@@H](O)C4)nc3)ccc2nn1CC` [Example 28, (R)-2-(ethyl(2-ethyl-5-(2-(3-hydroxypyrrolidin-1-yl)pyrimidin-5-yl)-2H-pyrazolo[4,3-b]pyridin-3-yl)amino)-4-(4-fluorophenyl)thiazole-5-carbonitrile] showed a Cl_F_pred of 0.14 L/h/kg, an AUC(0-inf) of 14100 ng·h/mL, an AUC(0-t) of 13900 ng·h/mL and a Cmax of 4380 ng/mL. For the same molecule, the half-life in data set [3] (IV 2 mg/kg) was 246 min. In data set [3] (PO 10 mg/kg), the Cl_F_pred is given as 0.6 L/h/kg, the AUC(0-inf) was found to be 18600 ng·h/mL, the AUC(0-t) was 18000 ng·h/mL and the Cmax amounted to 1720 ng/mL. Moreover, in data set [3] (PO 10 mg/kg), the Tmax turned out to be 4 h and the half-life was 252 min. In addition, the F in data set [3] came out at 25.9%. Besides, in data set [1], the IC50 stood at 3.8 nM. The IC50 shift at 10 min in data set [2] turned out to be 1.28.

These data come from patent publication US20230295159A1, “ATX INHIBITOR, AND PREPARATION METHOD THEREFOR AND USE THEREOF” (SUZHOU ARK BIOPHARMACEUTICAL CO., LTD., priority 2020, published 2023).
